Three compounds from ChEMBL document CHEMBL5505997, “Synthesis and biological evaluation of novel peptidomimetic inhibitors of the coronavirus 3C-like protease” (Eur J Med Chem, 2024) can be followed below.

Experiment [1] relates to SARS-CoV-2. Description: Antiviral activity against SARS-CoV-2 WA1 harboring NSP5 T21I mutant infected in HEK293T cells measured after 48 hrs by Nano-Glo luciferase assay. The format is functional, organism-based, Severe acute respiratory syndrome coronavirus 2.
The test system of experiment [2] is SARS-CoV-2. As to the kind of experiment: Antiviral activity against SARS-CoV-2 WA1 harboring NSP5 E166V mutant infected in HEK293T cells measured after 48 hrs by Nano-Glo luciferase assay. The format is functional, organism-based, Severe acute respiratory syndrome coronavirus 2.
In experiment [3] the test system is SARS-CoV-2. As to the kind of experiment: Antiviral activity against SARS-CoV-2 WA1 harboring NSP5 T21I/E166V mutant infected in HEK293T cells measured after 48 hrs by Nano-Glo luciferase assay. The format is functional, organism-based, Severe acute respiratory syndrome coronavirus 2.
Experiment [4] has as its system SARS-CoV-2. Description: Antiviral activity against SARS-CoV-2 WA1 harboring NSP5 L50F/E166V mutant infected in HEK293T cells measured after 48 hrs by Nano-Glo luciferase assay. It is filed as functional, organism-based, Severe acute respiratory syndrome coronavirus 2.
Experiment [5] has as its system SARS-CoV-2. Description: Antiviral activity against SARS-CoV-2 WA1 harboring NSP5 L50F/E166A/L167F mutant infected in HEK293T cells measured after 48 hrs by Nano-Glo luciferase assay. The format is functional, organism-based, Severe acute respiratory syndrome coronavirus 2.
The test system of experiment [6] is SARS-CoV-2. Description: Antiviral activity against SARS-CoV-2 Omicron BA.1 harboring NSP5 T21I mutant infected in HEK293T cells measured after 48 hrs by Nano-Glo luciferase assay. The format is functional, organism-based, Severe acute respiratory syndrome coronavirus 2.
Experiment [7] relates to SARS-CoV-2. Description: Antiviral activity against SARS-CoV-2 Omicron BA.1 harboring NSP5 E166V mutant infected in HEK293T cells measured after 48 hrs by Nano-Glo luciferase assay. The format is functional, organism-based, Severe acute respiratory syndrome coronavirus 2.
Experiment [8] relates to SARS-CoV-2. As to the kind of experiment: Antiviral activity against SARS-CoV-2 Omicron BA.1 harboring NSP5 T21I/E166V mutant infected in HEK293T cells measured after 48 hrs by Nano-Glo luciferase assay. It is filed as functional, organism-based, Severe acute respiratory syndrome coronavirus 2.
The test system of experiment [9] is SARS-CoV-2. As to the kind of experiment: Antiviral activity against SARS-CoV-2 Omicron BA.1 harboring NSP5 L50F/E166V mutant infected in HEK293T cells measured after 48 hrs by Nano-Glo luciferase assay. The format is functional, organism-based, Severe acute respiratory syndrome coronavirus 2.
For experiment [10], the system named is SARS-CoV-2. Description: Antiviral activity against SARS-CoV-2 Omicron BA.1 harboring NSP5 L50F/E166A/L167F mutant infected in HEK293T cells measured after 48 hrs by Nano-Glo luciferase assay. The format is functional, organism-based, Severe acute respiratory syndrome coronavirus 2.
The test system of experiment [11] is SARS-CoV-2. As to the kind of experiment: Selectivity ratio of EC50 for antiviral activity against SARS-CoV-2 WA1 harboring NSP5 T21I mutant infected in HEK293T cells to EC50 for antiviral activity against wild type SARS-CoV-2 WA1 infected in HEK293T cells. It is filed as functional.
Experiment [12] deals with SARS-CoV-2. As to the kind of experiment: Selectivity ratio of EC50 for antiviral activity against SARS-CoV-2 WA1 harboring NSP5 E166V mutant infected in HEK293T cells to EC50 for antiviral activity against wild type SARS-CoV-2 WA1 infected in HEK293T cells. It is filed as functional.
The subject of experiment [13] is SARS-CoV-2. Description: Selectivity ratio of EC50 for antiviral activity against SARS-CoV-2 WA1 harboring NSP5 T21I/E166V mutant infected in HEK293T cells to EC50 for antiviral activity against wild type SARS-CoV-2 WA1 infected in HEK293T cells. It is filed as functional.
Experiment [14] relates to SARS-CoV-2. Description: Selectivity ratio of EC50 for antiviral activity against SARS-CoV-2 WA1 harboring NSP5 L50F/E166V mutant infected in HEK293T cells to EC50 for antiviral activity against wild type SARS-CoV-2 WA1 infected in HEK293T cells. The format is functional.
Experiment [15] relates to SARS-CoV-2. As to the kind of experiment: Selectivity ratio of EC50 for antiviral activity against SARS-CoV-2 WA1 harboring NSP5 L50F/E166A/L167F mutant infected in HEK293T cells to EC50 for antiviral activity against wild type SARS-CoV-2 WA1 infected in HEK293T cells. The format is functional.
The subject of experiment [16] is SARS-CoV-2. As to the kind of experiment: Selectivity ratio of EC50 for antiviral activity against SARS-CoV-2 Omicron BA.1 harboring NSP5 T21I mutant infected in HEK293T cells to EC50 for antiviral activity against wild type SARS-CoV-2 Omicron BA.1 infected in HEK293T cells. The format is functional.
The test system of experiment [17] is SARS-CoV-2. Description: Selectivity ratio of EC50 for antiviral activity against SARS-CoV-2 Omicron BA.1 harboring NSP5 E166V mutant infected in HEK293T cells to EC50 for antiviral activity against wild type SARS-CoV-2 Omicron BA.1 infected in HEK293T cells. The format is functional.
The test system of experiment [18] is SARS-CoV-2. Description: Selectivity ratio of EC50 for antiviral activity against SARS-CoV-2 Omicron BA.1 harboring NSP5 T21I/E166V mutant infected in HEK293T cells to EC50 for antiviral activity against wild type SARS-CoV-2 Omicron BA.1 infected in HEK293T cells. It is filed as functional.
In experiment [19] the test system is SARS-CoV-2. As to the kind of experiment: Selectivity ratio of EC50 for antiviral activity against SARS-CoV-2 Omicron BA.1 harboring NSP5 L50F/E166V mutant infected in HEK293T cells to EC50 for antiviral activity against wild type SARS-CoV-2 Omicron BA.1 infected in HEK293T cells. It is filed as functional.
The test system of experiment [20] is SARS-CoV-2. As to the kind of experiment: Selectivity ratio of EC50 for antiviral activity against SARS-CoV-2 Omicron BA.1 harboring NSP5 L50F/E166A/L167F mutant infected in HEK293T cells to EC50 for antiviral activity against wild type SARS-CoV-2 Omicron BA.1 infected in HEK293T cells. The format is functional.

For orientation: EC50 means the midpoint of the concentration-response curve. On to `CC(C)(C)[C@H](NC(=O)C(F)(F)F)C(=O)N1C[C@H]2[C@@H]([C@H]1C(=O)N[C@H](C#N)C[C@@H]1CCNC1=O)C2(C)C`, for which the 50% effective concentration (EC50) stood at 0.08 µM in experiment [1]; 4.5 µM in [2]; 8.5 µM in [3]; 3.9 µM in [4]; 0.61 µM in [5]; 0.28 µM in [6]. Besides, the EC50 in experiment [7] was found to be 7.3 µM; in experiment [8] it was 12 µM; in experiment [9], 8.6 µM; in experiment [10], 2.9 µM.

On to `Cc1cc(C(=O)N[C@@H](Cc2cccc3ccccc23)C(=O)N[C@@H](CC(C)C)C(=O)N[C@H](C=O)C[C@@H]2CCCNC2=O)no1`, for which the concentration for a half-maximal effect (EC50) in experiment [1] is 0.36 µM; in experiment [2], 0.13 µM; in experiment [3], 0.17 µM; in experiment [4] it was 0.17 µM; in experiment [5], 0.39 µM; in experiment [6], 0.68 µM. For the same compound, the concentration giving a half-maximal response (EC50) in [7] was found to be 0.08 µM; in experiment [8] it was 0.15 µM; in [9] it was 0.15 µM; in experiment [10], 0.49 µM. Also, the “Ratio EC50” value in [11] turned out to be 1.8; in experiment [12], 0.6; in experiment [13], 0.8; in experiment [14] it was 0.9; in experiment [15] it was 2; in experiment [16] it was 2.1. Further, the “Ratio EC50” value in experiment [17] is 0.2; in experiment [18], 0.5; in experiment [19], 0.5; in [20], 1.5.

As to `CCC(CC)COC(=O)[C@H](C)N[P@](=O)(OC[C@H]1O[C@@](C#N)(c2ccc3c(N)ncnn23)[C@H](O)[C@@H]1O)Oc1ccccc1`, the 50% effective concentration (EC50) worked out at 0.011 µM in experiment [2]; 0.007 µM in [4]; 0.011 µM in experiment [5]; 0.006 µM in experiment [7]; 0.006 µM in experiment [9]; 0.009 µM in experiment [10]. For the same compound, the “Ratio EC50” value in experiment [12] worked out at 1.1; in [14] it was 0.7; in experiment [15] it was 1.1; in [17], 0.4; in [19], 0.4; in experiment [20], 0.7.
